Data on 8 compounds can be found in PubChem BioAssay (NCI).

“And” between values parts separate entries of the source, which are not always exact repeats. Equal values may be shown once.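 Briefly, cells in 96-well plates were exposed to five compound concentrations for 48 h, and endpoints were estimated by linear interpolation. GI50: concentration for 50% inhibition of growth. TGI marks complete inhibition of growth.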

Common to all, as to test: growth of human tumour cells (NCI), 48 h
The subject of test [1] is BT-549 breast.
Test [2] has as its system CAKI-1 renal.
Test [3] relates to LOX IMVI melanoma.
Test [4] deals with NCI-H23 lung.
For test [5], the system named is NCI/ADR-RES ovarian.
Test [6] deals with OVCAR-8 ovarian.
Test [7] concerns SNB-19 CNS.
For test [8], the system named is SNB-75 CNS.
The test system of test [9] is HOP-92 NSCLC.
Test [10] relates to MOLT-4 leukemia.

With `CO[C@H]1/C=C/O[C@@]2(C)Oc3c(C)c(O)c4c(O)c(c(/C=N/N5C(C)CN(Cc6ccc(C#N)cc6)CC5C)c(O)c4c3C2=O)NC(=O)/C(C)=C\C=C\[C@H](C)[C@H](O)[C@@H](C)[C@@H](O)[C@@H](C)[C@H](OC(C)=O)[C@@H]1C` (stereo not given in full), the GI50 in test [1] was 8.85 µM; in [2], 7.65 µM; in test [3] it was 6.84 µM; in test [4] it was 9.67 µM; in [5], 11.7 µM; in test [6], 10.4 µM. For the same compound, the figures for the GI50 in test [7] and in test [8] were 7.55 µM and 7.25 µM, respectively. Moreover, the TGI amounted to 23.5 µM in test [1]; 17.8 µM in test [2]; 13.4 µM in [3]; 30.7 µM in test [4]; 46 µM in [5]; 38.9 µM in test [6]. Also, the figures for the TGI in test [7] and in test [8] were 18.1 µM and 18.5 µM, respectively.

As for `COc1ccc2cc(C(=O)N3CCC([C@@H](C)C(=O)NCc4ccc5c(c4)OCO5)CC3)[nH]c2c1`, the GI50 in test [1] is 43.7 µM; in [9] it was 23.4 µM; in test [3], 50.1 µM; in test [10], > 100 µM; in test [4], > 100 µM; in [5] it was > 100 µM. Further, the GI50 in test [6] was 48.4 µM; in test [7], 56.7 µM; in test [8] it was 17.8 µM. Besides, the TGI in test [1], in [9], in test [3], in test [10], in test [4] and in [5] was > 100 µM throughout. Further, the TGI in test [6] was > 100 µM; in test [7], > 100 µM; in test [8], 78.3 µM.

In the case of `O=c1cc(-c2ccccc2)oc2c(O)c(O)ccc12`, the GI50 in test [1] was 8.36 µM; in test [2], 7.18 µM; in test [3], 9.58 µM; in test [10] it was 5.09 µM; in test [4], 6.27 µM; in test [5] it was 4.04 µM. In addition, the results for the GI50 in [6], in test [7] and in [8] were 5.65 µM, 16.8 µM and 28.7 µM, respectively. Further, the TGI in test [1] was 42.3 µM; in [2], 61.2 µM; in test [3], > 100 µM; in test [10], > 100 µM; in test [4], > 100 µM; in [5] it was 67.5 µM. The TGI in [6], in [7] and in test [8] was > 100 µM each time.

Turning to `OCC#Cc1ccccc1C#Cc1ccc(C#Cc2ccccc2C#CCO)cc1`, the GI50 in test [1] was 0.68 µM; in [2], 68.3 µM; in test [3], 48.1 µM; in test [10], 15.9 µM; in test [4], 41.5 µM; in test [5], 55.2 µM. The GI50 in test [6] is 79.1 µM; in test [7], 50 µM; in test [8], 85.1 µM. Also, the TGI is 32.2 µM in test [1]; > 100 µM in test [2]; > 100 µM in test [3]; 39.6 µM in test [10]; > 100 µM in [4]; > 100 µM in [5]. The TGI in test [6], in [7] and in test [8] was > 100 µM throughout.

Turning to `COc1ccc(OC)c(-c2cc(-c3ccc(Cl)cc3)nn2-c2ccccc2)c1`, the GI50 was 28.8 µM in test [1]; 24.2 µM in test [2]; 29.3 µM in test [9]; 8.7 µM in test [10]; 27.7 µM in test [4]; 15.8 µM in [5]. For the same compound, the GI50 in test [6] was 24.4 µM. For the same compound, the TGI in test [1] was 84.4 µM; in test [2], 66.9 µM; in [9], > 100 µM; in test [10], > 100 µM; in test [4], > 100 µM; in test [5] it was 60.9 µM. This compound had a TGI in test [6] of 93.9 µM.

As to `COC(=O)[C@@H](C)C[C@H](Cc1ccc(F)cc1)NC(=O)c1csc([C@@H](C[C@H](C(C)C)N(C)C(=O)[C@@H](NC(=O)[C@H]2CCCCN2C)C2CC2)OC(C)=O)n1`, the GI50 in test [1] was 0.188 µM; in [9], 0.917 µM; in [3] it was 0.272 µM; in test [10] it was 0.338 µM; in [4], 1.14 µM; in [5], 6.88 µM. For the same compound, the GI50 in [6] is 0.537 µM; in test [7], 0.164 µM; in [8], 0.174 µM. The TGI in test [1] was 3.72 µM; in test [9], > 12.8 µM; in [3], > 25 µM; in [10] it was > 25 µM; in test [4] it was > 25 µM; in test [5], > 25 µM. Moreover, the TGI in [6], in test [7] and in test [8] was > 25 µM throughout.

`Cc1ccc(S(=O)(=O)NC(Cc2ccccc2)C(=O)CCl)cc1` (stereo not given): the TGI came to 23.9 µM in [1]; 26.8 µM in [9]; 20.1 µM in [3]; 26.8 µM in test [4]; 62.9 µM in test [5]; 29.7 µM in test [6]. Besides, the TGI in [7] stood at 32.1 µM; in [8], 28 µM.

In the case of `COC(=O)[C@@H](C)C[C@H](Cc1ccccc1)NC(=O)c1csc([C@@H](C[C@H](C(C)C)N(C)C(=O)[C@@H](NC(=O)[C@H]2CCCCN2C)c2ccc(F)cc2)OC(C)=O)n1`, the TGI in test [1] is 0.0853 µM and 0.661 µM; in [3], 6.71 µM and 20.8 µM; in [10], 8.45 µM and 54.4 µM; in test [4] it was 25 µM and > 100 µM; in test [5], 25 µM and > 100 µM; in test [6], 25 µM and > 100 µM. The TGI in test [7] was > 100 µM; in test [8] it was 17.6 µM and 61.3 µM. Moreover, the GI50 was 1.81 µM and 3.8 µM in test [5]; 0.0163 µM and 0.0441 µM in test [7].
